Laboratory results reported in patent US11591604B2, “Gene expression in Bacteroides” (Massachusetts Institute of Technology, priority 2015, dated 2023).

Each substance was assayed on NanoLuc (assay: NanoLuc luciferase reporter expression from constitutive promoters and RBSs integrated with pNBU2). Settings: RBS combined with promoter PBT1311, NanoLuc reporter, three biological replicates.
Type: cell-based, B. thetaiotaomicron

Row | Substance | Average Luminescence (RLU/CFU)
1 | B32: RBS, SEQ ID NO: 92 (DNA TCCCGCATTTTAAAATAAAATAAATGATGTAGTTAATTAAACGAAT; chemistry not fully specified) | 0.007096
2 | B33: RBS, SEQ ID NO: 97 (DNA TCCCGCATTTTAAAATAAAATAAATCATGTATTTAATTAAACGAAT; chemistry not fully specified) | 0.006272
3 | B34: RBS, SEQ ID NO: 98 (DNA TCCCGCATTTTAAAATAAAATAAATCATCTATTTAATTAAACGAAT; chemistry not fully specified) | 0.00584
4 | B35: RBS, SEQ ID NO: 105 (DNA TCCCGCATTTTAAAATAAAATAAATCATGTACTTAATTAAACGAAT; chemistry not fully specified) | 0.005272
5 | B36: RBS, SEQ ID NO: 112 (DNA TCCCGCATTTTAAAATAAAATAAATCATATAATTAATTAAACGAAT; chemistry not fully specified) | 0.004282
6 | B37: RBS, SEQ ID NO: 121 (DNA TCCCGCATTTTAAAATAAAATAAATCATATATTTAATTAAACGAAT; chemistry not fully specified) | 0.002567
7 | B38: RBS, SEQ ID NO: 127 (DNA TCCCGCATTTTAAAATAAAATAAATCATTTAGTTAATTAAACGAAT; chemistry not fully specified) | 0.001793
8 | B39: RBS, SEQ ID NO: 133 (DNA TCCCGCATTTTAAAATAAAATAAATCATCTAGTTAATTAAACGAAT; chemistry not fully specified) | 0.001255
9 | B40: RBS, SEQ ID NO: 134 (DNA TCCCGCATTTTAAAATAAAATAAATCATGTAGTTAATTAAACGAAT; chemistry not fully specified) | 0.001108
10 | B41: RBS, SEQ ID NO: 139 (DNA TCCCGCATTTTAAAATAAAATAAATCATATAGTTAATTAAACGAAT; chemistry not fully specified) | 0.0001307
11 | C1: RBS, SEQ ID NO: 11 (DNA TCCCGCATTTTAAAATAAAATAAATTATTGATTTAGTTAAACGAAT; chemistry not fully specified) | 0.04468
12 | C2: RBS, SEQ ID NO: 13 (DNA TCCCGCATTTTAAAATAAAATAAATTATTACTTTAGTTAAACGAAT; chemistry not fully specified) | 0.04331
13 | C3: RBS, SEQ ID NO: 14 (DNA TCCCGCATTTTAAAATAAAATAAATTATTACTTTAATTAAACGAAT; chemistry not fully specified) | 0.03677
14 | C4: RBS, SEQ ID NO: 16 (DNA TCCCGCATTTTAAAATAAAATAAATTATTTATTTAGTTAAACGAAT; chemistry not fully specified) | 0.03516
15 | C5: RBS, SEQ ID NO: 17 (DNA TCCCGCATTTTAAAATAAAATAAATTATTCATTTAATTAAACGAAT; chemistry not fully specified) | 0.03327
16 | C6: RBS, SEQ ID NO: 19 (DNA TCCCGCATTTTAAAATAAAATAAATTATTAATTTAGTTAAACGAAT; chemistry not fully specified) | 0.03263
17 | C7: RBS, SEQ ID NO: 20 (DNA TCCCGCATTTTAAAATAAAATAAATTATTAATTTACTTAAACGAAT; chemistry not fully specified) | 0.03249
18 | C8: RBS, SEQ ID NO: 21 (DNA TCCCGCATTTTAAAATAAAATAAATTATTTATCGAATTAAACGAAT; chemistry not fully specified) | 0.03132
19 | C9: RBS, SEQ ID NO: 23 (DNA TCCCGCATTTTAAAATAAAATAAATTATTGCTTTAATTAAACGAAT; chemistry not fully specified) | 0.02988
20 | C10: RBS, SEQ ID NO: 31 (DNA TCCCGCATTTTAAAATAAAATAAATTATTATTTTAATTAAACGAAT; chemistry not fully specified) | 0.02583
21 | C11: RBS, SEQ ID NO: 36 (DNA TCCCGCATTTTAAAATAAAATAAATTATTTTTTTACTTAAACGAAT; chemistry not fully specified) | 0.02223
22 | C12: RBS, SEQ ID NO: 37 (DNA TCCCGCATTTTAAAATAAAATAAATTATTAGTTTAGTTAAACGAAT; chemistry not fully specified) | 0.02151
23 | C13: RBS, SEQ ID NO: 38 (DNA TCCCGCATTTTAAAATAAAATAAATTATTAATTTAATTAAACGAAT; chemistry not fully specified) | 0.02149
24 | C14: RBS, SEQ ID NO: 40 (DNA TCCCGCATTTTAAAATAAAATAAATTATTTCTTTACTTAAACGAAT; chemistry not fully specified) | 0.02123

Row | Substance | Average Luminescence (RLU/CFU)
25 | C15: RBS, SEQ ID NO: 41 (DNA TCCCGCATTTTAAAATAAAATAAATTATTTCTTTAATTAAACGAAT; chemistry not fully specified) | 0.02056
26 | C16: RBS, SEQ ID NO: 43 (DNA TCCCGCATTTTAAAATAAAATAAATTATTAGTTTAATTAAACGAAT; chemistry not fully specified) | 0.0203
27 | C17: RBS, SEQ ID NO: 45 (DNA TCCCGCATTTTAAAATAAAATAAATTATTAGTTTATTTAAACGAAT; chemistry not fully specified) | 0.01871
28 | C18: RBS, SEQ ID NO: 47 (DNA TCCCGCATTTTAAAATAAAATAAATTATTGTTTTACTTAAACGAAT; chemistry not fully specified) | 0.01851
29 | C19: RBS, SEQ ID NO: 48 (DNA TCCCGCATTTTAAAATAAAATAAATTATTGCTTTAGTTAAACGAAT; chemistry not fully specified) | 0.01835
30 | C20: RBS, SEQ ID NO: 51 (DNA TCCCGCATTTTAAAATAAAATAAATTATTGTTTTAGTTAAACGAAT; chemistry not fully specified) | 0.01758
31 | C21: RBS, SEQ ID NO: 54 (DNA TCCCGCATTTTAAAATAAAATAAATTATTGGTTTAATTAAACGAAT; chemistry not fully specified) | 0.01602
32 | C22: RBS, SEQ ID NO: 57 (DNA TCCCGCATTTTAAAATAAAATAAATTATTGTTTTAATTAAACGAAT; chemistry not fully specified) | 0.01508
33 | C23: RBS, SEQ ID NO: 60 (DNA TCCCGCATTTTAAAATAAAATAAATTATTGATTTACTTAAACGAAT; chemistry not fully specified) | 0.01469
34 | C24: RBS, SEQ ID NO: 67 (DNA TCCCGCATTTTAAAATAAAATAAATTATTTCTTTATTTAAACGAAT; chemistry not fully specified) | 0.01287
35 | C25: RBS, SEQ ID NO: 72 (DNA TCCCGCATTTTAAAATAAAATAAATTATTATTTTACTTAAACGAAT; chemistry not fully specified) | 0.01148
36 | C26: RBS, SEQ ID NO: 75 (DNA TCCCGCATTTTAAAATAAAATAAATTATTTATTTACTTAAACGAAT; chemistry not fully specified) | 0.009775
37 | C27: RBS, SEQ ID NO: 76 (DNA TCCCGCATTTTAAAATAAAATAAATTATTTTTTTAGTTAAACGAAT; chemistry not fully specified) | 0.009752
38 | C28: RBS, SEQ ID NO: 81 (DNA TCCCGCATTTTAAAATAAAATAAATTATTCATTTATTTAAACGAAT; chemistry not fully specified) | 0.009278
39 | C29: RBS, SEQ ID NO: 86 (DNA TCCCGCATTTTAAAATAAAATAAATTATTTTTTTATTTAAACGAAT; chemistry not fully specified) | 0.008233
40 | C30: RBS, SEQ ID NO: 88 (DNA TCCCGCATTTTAAAATAAAATAAATTATTTATTTATTTAAACGAAT; chemistry not fully specified) | 0.008085
41 | C31: RBS, SEQ ID NO: 90 (DNA TCCCGCATTTTAAAATAAAATAAATTATTTATTTACTTAAACGAAT; chemistry not fully specified) | 0.007861
42 | C32: RBS, SEQ ID NO: 91 (DNA TCCCGCATTTTAAAATAAAATAAATTATTGCTTTATTTAAACGAAT; chemistry not fully specified) | 0.007717
43 | C33: RBS, SEQ ID NO: 93 (DNA TCCCGCATTTTAAAATAAAATAAATTATTAGTTTACTTAAACGAAT; chemistry not fully specified) | 0.006912
44 | C34: RBS, SEQ ID NO: 96 (DNA TCCCGCATTTTAAAATAAAATAAATTATTCTTTTACTTAAACGAAT; chemistry not fully specified) | 0.006727
45 | C35: RBS, SEQ ID NO: 99 (DNA TCCCGCATTTTAAAATAAAATAAATTATTCCTTTAATTAAACGAAT; chemistry not fully specified) | 0.005815
46 | C36: RBS, SEQ ID NO: 100 (DNA TCCCGCATTTTAAAATAAAATAAATTATTACTTTATTTAAACGAAT; chemistry not fully specified) | 0.005692
47 | C37: RBS, SEQ ID NO: 102 (DNA TCCCGCATTTTAAAATAAAATAAATTATTGGTTTAGTTAAACGAAT; chemistry not fully specified) | 0.005598
48 | C38: RBS, SEQ ID NO: 108 (DNA TCCCGCATTTTAAAATAAAATAAATTATTCTTTTATTTAAACGAAT; chemistry not fully specified) | 0.004774

Same assay, conditions: set of 8 RBSs, under control of PBT1311, NanoLuc reporter

Row | Substance | Expression Level (RLU/CFU)
49 | C33: RBS, SEQ ID NO: 93 (DNA TCCCGCATTTTAAAATAAAATAAATTATTAGTTTACTTAAACGAAT; chemistry not fully specified) | 6.91E-03
